From the NIST ThermoML archive (doi:10.1007/s10765-005-5570-x)
“And” between values parts separate entries of the source, which are not always exact repeats. Equal values may be shown once. Numbers after ± are expanded uncertainties.

Experiments:
[1] = xn = mol fraction of the nth substance listed; details: 101.33 kPa, Liquid, x2 = 0
[2] = Liquid

For `CCOC(C)=O` [ethyl acetate] + ClCCBr, the mass density ([1]; 288.15 K) was 906.71 ± 0.47 kg/m3, the mass density ([1]; 298.15 K) was 894.97 ± 0.49 kg/m3 and the mass density ([1]; 308.15 K) was 882.27 ± 0.51 kg/m3.

In the case of `CCOC(C)=O` [ethyl acetate] + ClCBr, the mass density ([1]; 288.15 K) is reported as 906.71 ± 0.47 kg/m3, the mass density ([1]; 298.15 K) is reported as 894.97 ± 0.49 kg/m3 and the mass density ([1]; 308.15 K) is reported as 881.87 ± 0.51 kg/m3.

With `ClCCCl` [1,2-dichloroethane] the mass density ([2]; 288.15 K, 101.33 kPa) was 1260.13 ± 0.86 kg/m3, the mass density ([2]; 298.15 K, 101.33 kPa) was 1246.59 ± 0.83 kg/m3 and the mass density ([2]; 298.15 K, 200 kPa) was 1245.68 ± 0.6 kg/m3. The mass density ([2]; 298.15 K, 500 kPa) was 1246.02 ± 0.61 kg/m3, the mass density ([2]; 298.15 K, 1100 kPa) was 1246.54 ± 0.63 kg/m3 and the mass density ([2]; 298.15 K, 2000 kPa) was 1247.41 ± 0.66 kg/m3. For the same compound, the mass density ([2]; 298.15 K, 3100 kPa) was 1248.51 ± 0.7 kg/m3, the mass density ([2]; 298.15 K, 4100 kPa) was 1249.53 ± 0.74 kg/m3 and the mass density ([2]; 298.15 K, 5100 kPa) was 1250.32 ± 0.78 kg/m3. For the same compound, the mass density ([2]; 298.15 K, 6100 kPa) was 1251.22 ± 0.81 kg/m3, the mass density ([2]; 298.15 K, 7100 kPa) was 1252.27 ± 0.85 kg/m3 and the mass density ([2]; 298.15 K, 8000 kPa) was 1253.07 ± 0.89 kg/m3. It also gave a mass density ([2]; 298.15 K, 8900 kPa) of 1254 ± 0.92 kg/m3, a mass density ([2]; 298.15 K, 10100 kPa) of 1255.18 ± 0.97 kg/m3 and a mass density ([2]; 298.15 K, 12000 kPa) of 1256.96 ± 1.1 kg/m3. It also gave a mass density ([2]; 298.15 K, 13900 kPa) of 1258.84 ± 1.1 kg/m3, a mass density ([2]; 298.15 K, 15700 kPa) of 1260.48 ± 1.2 kg/m3 and a mass density ([2]; 298.15 K, 17700 kPa) of 1262.37 ± 1.3 kg/m3. For the same compound, the mass density ([2]; 298.15 K, 19700 kPa) was 1264.29 ± 1.4 kg/m3 and the mass density ([2]; 308.15 K, 101.33 kPa) was 1231.27 ± 0.79 kg/m3.

Compound `ClCBr` [bromochloromethane] has a mass density ([2]; 288.15 K, 101.33 kPa) of 1945.94 ± 2.6 kg/m3, a mass density ([2]; 298.15 K, 101.33 kPa) of 1924.88 ± 2.5 kg/m3 and a mass density ([2]; 298.15 K, 200 kPa) of 1923.54 ± 1.9 kg/m3. It also gave a mass density ([2]; 298.15 K, 500 kPa) of 1923.88 ± 1.9 kg/m3, a mass density ([2]; 298.15 K, 1000 kPa) of 1924.64 ± 2 kg/m3 and a mass density ([2]; 298.15 K, 2100 kPa) of 1926.24 ± 2.1 kg/m3. It also gave a mass density ([2]; 298.15 K, 2900 kPa) of 1927.62 ± 2.2 kg/m3, a mass density ([2]; 298.15 K, 3800 kPa) of 1928.77 ± 2.3 kg/m3 and a mass density ([2]; 298.15 K, 4900 kPa) of 1930.51 ± 2.5 kg/m3. For the same compound, the mass density ([2]; 298.15 K, 5900 kPa) was 1932.03 ± 2.6 kg/m3, the mass density ([2]; 298.15 K, 7000 kPa) was 1933.43 ± 2.8 kg/m3 and the mass density ([2]; 298.15 K, 8000 kPa) was 1934.88 ± 2.9 kg/m3. For the same compound, the mass density ([2]; 298.15 K, 8800 kPa) was 1936.36 ± 3 kg/m3, the mass density ([2]; 298.15 K, 9800 kPa) was 1937.83 ± 3.2 kg/m3 and the mass density ([2]; 298.15 K, 11800 kPa) was 1940.79 ± 3.4 kg/m3. For the same compound, the mass density ([2]; 298.15 K, 13900 kPa) was 1944.25 ± 3.8 kg/m3, the mass density ([2]; 298.15 K, 15700 kPa) was 1947.01 ± 4 kg/m3 and the mass density ([2]; 298.15 K, 17800 kPa) was 1950.26 ± 4.3 kg/m3. The mass density ([2]; 298.15 K, 19600 kPa) was 1953.16 ± 4.6 kg/m3 and the mass density ([2]; 308.15 K, 101.33 kPa) was 1900.86 ± 2.5 kg/m3.

With `CCOC(C)=O` [ethyl acetate] + BrCBr the mass density ([1]; 288.15 K) was 906.71 ± 0.47 kg/m3, the mass density ([1]; 298.15 K) was 894.97 ± 0.49 kg/m3 and the mass density ([1]; 308.15 K) was 882.27 ± 0.51 kg/m3.

For `BrCBr` [dibromomethane], the mass density ([2]; 288.15 K, 101.33 kPa) was 2501.88 ± 4.2 kg/m3, the mass density ([2]; 298.15 K, 101.33 kPa) was 2478.37 ± 4.1 kg/m3 and the mass density ([2]; 298.15 K, 200 kPa) was 2477.56 ± 3.1 kg/m3. The mass density ([2]; 298.15 K, 300 kPa) was 2477.92 ± 3.1 kg/m3, the mass density ([2]; 298.15 K, 600 kPa) was 2478.35 ± 3.2 kg/m3 and the mass density ([2]; 298.15 K, 1000 kPa) was 2478.9 ± 3.2 kg/m3. For the same compound, the mass density ([2]; 298.15 K, 2100 kPa) was 2480.41 ± 3.5 kg/m3, the mass density ([2]; 298.15 K, 3000 kPa) was 2481.88 ± 3.6 kg/m3 and the mass density ([2]; 298.15 K, 4100 kPa) was 2483.5 ± 3.9 kg/m3. It also gave a mass density ([2]; 298.15 K, 5000 kPa) of 2484.84 ± 4 kg/m3, a mass density ([2]; 298.15 K, 5900 kPa) of 2486.26 ± 4.2 kg/m3 and a mass density ([2]; 298.15 K, 6900 kPa) of 2487.82 ± 4.4 kg/m3. For the same compound, the mass density ([2]; 298.15 K, 8000 kPa) was 2489.54 ± 4.7 kg/m3, the mass density ([2]; 298.15 K, 8800 kPa) was 2490.92 ± 4.8 kg/m3 and the mass density ([2]; 298.15 K, 9800 kPa) was 2492.58 ± 5.1 kg/m3. It also gave a mass density ([2]; 298.15 K, 11800 kPa) of 2494.98 ± 5.5 kg/m3, a mass density ([2]; 298.15 K, 13700 kPa) of 2498.59 ± 5.9 kg/m3 and a mass density ([2]; 298.15 K, 15800 kPa) of 2502.33 ± 6.4 kg/m3. It also gave a mass density ([2]; 298.15 K, 15900 kPa) of 2502.49 ± 6.4 kg/m3, a mass density ([2]; 298.15 K, 17700 kPa) of 2505.74 ± 6.9 kg/m3 and a mass density ([2]; 298.15 K, 19200 kPa) of 2508.69 ± 7.2 kg/m3. It also gave a mass density ([2]; 298.15 K, 19300 kPa) of 2508.84 ± 7.2 kg/m3 and a mass density ([2]; 308.15 K, 101.33 kPa) of 2451.74 ± 4 kg/m3.

Compound `CCOC(C)=O` [ethyl acetate] + ClCCCl has a mass density ([1]; 288.15 K) of 906.71 ± 0.47 kg/m3, a mass density ([1]; 298.15 K) of 894.97 ± 0.49 kg/m3 and a mass density ([1]; 308.15 K) of 882.27 ± 0.51 kg/m3.

Compound `CCOC(C)=O` [ethyl acetate] has a mass density ([2]; 288.15 K, 101.33 kPa) of 906.71 ± 0.47 kg/m3, a mass density ([2]; 298.15 K, 101.33 kPa) of 894.97 ± 0.49 kg/m3 and a mass density ([2]; 298.15 K, 200 kPa) of 894.2 ± 0.37 kg/m3. For the same compound, the mass density ([2]; 298.15 K, 600 kPa) was 894.65 ± 0.37 kg/m3, the mass density ([2]; 298.15 K, 1100 kPa) was 895.18 ± 0.38 kg/m3 and the mass density ([2]; 298.15 K, 2100 kPa) was 896.14 ± 0.39 kg/m3. For the same compound, the mass density ([2]; 298.15 K, 2900 kPa) was 897.1 ± 0.4 kg/m3, the mass density ([2]; 298.15 K, 4000 kPa) was 898.2 ± 0.41 kg/m3 and the mass density ([2]; 298.15 K, 5100 kPa) was 899.22 ± 0.43 kg/m3. It also gave a mass density ([2]; 298.15 K, 6000 kPa) of 900.19 ± 0.44 kg/m3, a mass density ([2]; 298.15 K, 7000 kPa) of 901.11 ± 0.45 kg/m3 and a mass density ([2]; 298.15 K, 8000 kPa) of 902.12 ± 0.46 kg/m3. It also gave a mass density ([2]; 298.15 K, 8900 kPa) of 902.88 ± 0.47 kg/m3, a mass density ([2]; 298.15 K, 9900 kPa) of 903.88 ± 0.48 kg/m3 and a mass density ([2]; 298.15 K, 11700 kPa) of 905.54 ± 0.5 kg/m3. It also gave a mass density ([2]; 298.15 K, 13800 kPa) of 907.54 ± 0.52 kg/m3, a mass density ([2]; 298.15 K, 16000 kPa) of 909.45 ± 0.54 kg/m3 and a mass density ([2]; 298.15 K, 17600 kPa) of 910.84 ± 0.56 kg/m3. For the same compound, the mass density ([2]; 298.15 K, 19500 kPa) was 912.59 ± 0.57 kg/m3 and the mass density ([2]; 308.15 K, 101.33 kPa) was 882.27 ± 0.51 kg/m3 and 881.87 ± 0.51 kg/m3.

For `ClCCBr` [1-bromo-2-chloroethane], the mass density ([2]; 288.15 K, 101.33 kPa) was 1744.36 ± 2.6 kg/m3, the mass density ([2]; 298.15 K, 101.33 kPa) was 1727.88 ± 2.6 kg/m3 and the mass density ([2]; 298.15 K, 200 kPa) was 1726.08 ± 2.2 kg/m3. It also gave a mass density ([2]; 298.15 K, 500 kPa) of 1726.48 ± 2.2 kg/m3, a mass density ([2]; 298.15 K, 900 kPa) of 1726.94 ± 2.2 kg/m3 and a mass density ([2]; 298.15 K, 2000 kPa) of 1728.17 ± 2.3 kg/m3. It also gave a mass density ([2]; 298.15 K, 2900 kPa) of 1729.14 ± 2.4 kg/m3, a mass density ([2]; 298.15 K, 4100 kPa) of 1730.57 ± 2.5 kg/m3 and a mass density ([2]; 298.15 K, 4800 kPa) of 1731.35 ± 2.5 kg/m3. For the same compound, the mass density ([2]; 298.15 K, 6000 kPa) was 1732.77 ± 2.6 kg/m3, the mass density ([2]; 298.15 K, 6800 kPa) was 1733.74 ± 2.7 kg/m3 and the mass density ([2]; 298.15 K, 8000 kPa) was 1735.1 ± 2.8 kg/m3. For the same compound, the mass density ([2]; 298.15 K, 8700 kPa) was 1736.13 ± 2.9 kg/m3, the mass density ([2]; 298.15 K, 9600 kPa) was 1737.17 ± 3 kg/m3 and the mass density ([2]; 298.15 K, 11700 kPa) was 1739.6 ± 3.2 kg/m3. For the same compound, the mass density ([2]; 298.15 K, 13900 kPa) was 1742.49 ± 3.4 kg/m3, the mass density ([2]; 298.15 K, 15600 kPa) was 1744.52 ± 3.5 kg/m3 and the mass density ([2]; 298.15 K, 17600 kPa) was 1747.12 ± 3.8 kg/m3. It also gave a mass density ([2]; 298.15 K, 19400 kPa) of 1749.48 ± 4 kg/m3 and a mass density ([2]; 308.15 K, 101.33 kPa) of 1708.86 ± 2.5 kg/m3.
